The term pIC50 denotes the negative decadic logarithm of the IC50, by convention in mol/L.

The structures appear in SMILES notation. pIC50: −log10 of the molar value.

The test system of this assay is P. falciparum 3D7 growth, pLDH absorbance. The assay can be described thus: blood-stage malaria parasite growth potency – strain 3D7, dose response (AID 2305).
The compound `Fc1ccccc1CNc1ncc(-c2ccsc2)c(-c2nccs2)n1` had a pIC50 of 7.30.
`COc1ccc2c(c1)S(=O)(=O)N=C(N1CCCC1c1ccc(Cl)c(Cl)c1)N2C` (stereo not drawn) had a pIC50 of 5.89.
Consider `O=C(NCc1cccc2ccccc12)C1CCCN(C(=O)c2ccc(O)c(-c3ccc(Cl)c(Cl)c3)c2)C1` (stereo not drawn), for which the pIC50 was 5.99. This pIC50 and that of the compound before are within 0.2 log units of each other.
`CNCCCCCCOc1ccc(CC(C)NCC(O)c2cccc(C(F)(F)F)c2)cc1` (stereo not drawn): the pIC50 is 6.06. This pIC50 and that of the compound before are within 0.2 log units of each other.
In turn, `CN(CCO)Cc1ccc(-c2ccc(NS(=O)(=O)c3cccc4cccnc34)cc2)cc1` had a pIC50 of 6.10. This pIC50 and that of the compound before are within 0.2 log units of each other.
With `CCN(CC)CCN(Cc1ccc(-c2ccc(C(F)(F)F)cc2)cc1)C(=O)Cn1c(CCc2ccc(F)c(F)c2F)nc(=O)c2ccccc21` the figure was 6.10; with `COc1cccc(CN2CCC3(CC2)CN(C(=O)Nc2ccc(Cl)c(Cl)c2)C3)c1`, 6.12; with `Cc1ccc(NC(=O)Nc2ccc(Br)cc2)cc1OCCN(C)C`, 6.01.
In the case of `Cn1cccc1CCNCc1ccc(-c2cccc(-c3nc4ccc(F)cc4[nH]3)c2)cc1` it was 5.91; in that of `CCS(=O)(=O)c1ccc(-c2cnc3[nH]cc(-c4ccc(N)cc4)c3c2)cc1`, 6.07.
With `CC(C)C[C@H](NC(=O)c1cc2ccccc2s1)C(=O)N[C@H]1CCN(Cc2ccc(OCCCN(C)C)c(Cl)c2)C1` the figure was 6.05.
With `O=C(Nc1cccc(CN2CCCN(Cc3ccc4c(c3)OCO4)CC2)c1)c1cc2ccccc2s1`, the pIC50 is 6.00.
In the case of `COc1ccc(CC(C)NCC(O)c2ccc(Cl)c(Cl)c2)cc1` (stereo not drawn) it was 6.14; in that of `C=CCc1cc(C2CCN(CCCCNC(=O)c3ccc(-c4ccc(C#N)cc4)cc3)CC2)c(OCC(N)=O)c2c1CCCC2`, 6.10.
Turning to `CCCNC(=O)C1Cc2cc(OC)c(OC)cc2C2(N1)C(=O)N(Cc1cccc(OC)c1)c1ccccc12` (stereo not drawn), the pIC50 is 6.07.
In turn, `COc1ccc(Nc2nccc(N3CCC(NC(=O)c4cc5ccccc5s4)C3)n2)cc1` (stereo not drawn) gave a pIC50 of 6.12. The pIC50 values of the last two compounds are within 0.2 log units of each other.
On to `O=c1cc(NCCC(CNCc2ccc(Br)o2)NCc2cc(Br)cc(Br)c2)[nH]c2ccccc12` (stereo not drawn), for which the pIC50 is 6.07.
As to `COc1ccc2ncc(F)c(NC(=O)C3CCC(NCc4cc5c(F)cccc5[nH]4)CC3)c2n1` (stereo not drawn), the pIC50 is 5.96. The pIC50 values of the last two compounds are within 0.2 log units of each other.
In the case of `COc1ccc2[nH]c(C(=O)Nc3ccc4nc(-c5ccccc5)[nH]c4c3)cc2c1`, the pIC50 is 6.08. The pIC50 values of the last two compounds are within 0.2 log units of each other.
Compound `O=C(NC1CC1)c1cnc(N2CCC(OCc3ccccc3)CC2)c(Cl)c1` gave a pIC50 of 5.85.
Regarding `O=C(/C=C/c1ccc(F)cc1)NC1CCC(CCN2CCc3ccccc3CC2)CC1` (stereo not drawn), the pIC50 was 5.85.
On to `CCOC(=O)c1ccc(Nc2cc(Nc3ccc(C(=O)OCC)cc3)nc(C)n2)cc1`, for which the pIC50 is 6.04.
In the case of `O=C(NCCN1CCCCC1)c1cc2cc(-c3ccccc3)ccc2n1S(=O)(=O)c1ccccc1` it was 5.95; in that of `CC(C)C[C@H](NC(=O)c1cc2ccccc2s1)C(=O)N[C@H]1CCN(Cc2ccc(I)c(OC3CCN(C)C3)c2)C1` (stereo partly drawn), 6.04.
Regarding `CCc1cc(Br)c(CNCCCNc2cc(=O)c3ccccc3[nH]2)s1`, the pIC50 is 6.02. The pIC50 values of the last two compounds are within 0.2 log units of each other.
In the case of `CC1(C)CNCc2cc(NC(=O)/C=C/c3ccc(Cl)cc3)ccc21` it was 5.93.
With `O=C(/C=C/c1ccc(Cl)c(Cl)c1)Nc1cccc(CN2CCC(c3c[nH]c4ccccc34)CC2)c1` the figure was 6.17; with `Nc1nc(N)c2c(ccn2Cc2cc3c(cc2Cl)OCO3)n1`, 6.12.
In the case of `O=C(Cc1ccccc1)NC(c1ccco1)c1cc(Cl)c2cccnc2c1O` (stereo not drawn) it was 6.16; in that of `Cc1cccc(N2CCN(C3CCC(NC(=O)c4cc5ccccc5[nH]4)CC3)CC2)c1C` (stereo not drawn), 6.21.
`FC(F)(F)c1ccc2c(NCCNc3ccnc4cc(C(F)(F)F)ccc34)ccnc2c1` had a pIC50 of 7.52.
As to `Cc1ccc2c(=O)cc(CCc3cccc(F)c3F)n(CC(=O)N(Cc3ccc(-c4ccc(C(F)(F)F)cc4)cc3)C3CCN(C(C)C)CC3)c2n1`, the pIC50 is 6.11.
In the case of `CC1CCCC(Nc2noc(-c3sccc3Br)n2)C1` (stereo not drawn), the pIC50 was 6.16. This pIC50 and that of the compound before are within 0.2 log units of each other.
The compound `CN(C)C(CNC(=O)c1cc(-c2ccncc2)c(-c2ccc(NC(=O)Nc3cccc(F)c3)cc2)o1)c1ccccc1` (stereo not drawn) showed a pIC50 of 6.11.
In turn, `O=C(NC1CCN(Cc2ccc(O)cc2)CC1)c1ccc(Cl)c(Cl)c1` gave a pIC50 of 5.93.
`Cc1sc2cc(Cl)cc(Cl)c2c1S(=O)(=O)Nc1ccc2nccc(N3CCNCC3)c2c1` had a pIC50 of 6.92. This pIC50 is 0.99 log units higher than that of the compound before.
For the compound `CN(C)c1ccc(C2c3nc[nH]c3CCN2C(=O)Nc2cccc([N+](=O)[O-])c2)cc1` (stereo not drawn), the pIC50 was 6.01. Against the preceding compound, the pIC50 is 0.91 log units lower.
The compound `Cc1[nH]nc2cc(Nc3nccc(Nc4ccc(Oc5ccccc5)cc4)n3)ccc12` gave a pIC50 of 6.22.
With `CN1CC=C(C=Cc2c[nH]c3ccccc23)CC1` the figure was 5.87; with `CCOC(=O)c1ccc(NC(=O)Nc2cccc(-c3ccc(-c4nc5c(C)cccc5[nH]4)s3)c2)cc1`, 6.85.
Regarding `CCN(CC)CCN(Cc1ccc(-c2ccc(C(F)(F)F)cc2)cc1)C(=O)Cn1c(CCc2cccc(F)c2F)nc(=O)c2cc(F)ccc21`, the pIC50 is 6.08.
In the case of `COc1cc(C(C)C)nc2ccc(NC(=O)c3ccc(C(=O)Nc4ccc5nc(C(C)C)cc(OC)c5c4)cc3)cc12` it was 6.24; in that of `FC(F)(F)c1cccc(CCNc2nccc(NCc3ccc(Cl)cc3Cl)n2)c1`, 6.07.
In the case of `O=C1SC(=Cc2ccc(O)c(O)c2)C(=O)N1c1ccccc1` it was 5.92; in that of `CC(C)(CNC(=O)C1CCN(CC2CCCCC2)CC1)c1nc(-c2ccc(Cl)c(O)c2)c(-c2ccncc2)[nH]1`, 6.05; in that of `COc1cccc(NC(=O)Nc2cc(-c3ccc4[nH]ncc4c3)cc3c2CNC3=O)c1`, 6.92.
With `O=C(/C=C/c1ccc(Cl)c(Cl)c1)NCCCCCN1CCCC(C(=O)Nc2cccc(Cl)c2)C1` (stereo not drawn) the figure was 6.05; with `COc1ccc(CCNCCCCCCNCCc2ccccc2Cl)cc1OC`, 6.18.
For `O=C(Nc1ccc(Cl)cc1)Nc1cccc(-c2cccc(-c3nc4ccccc4[nH]3)c2)c1`, the pIC50 is 6.89.
In the case of `Clc1ccc(-n2cnc3c(Nc4ccc(Oc5ccccc5)cc4)ncnc32)cc1Cl` it was 6.12; in that of `COc1ccc2nccc(N3CCCN(CCNCc4ccc5c(n4)NC(=O)CS5)CC3)c2n1`, 6.82.
In turn, `COc1ccc2nccc([C@@H](O)CN3CCC(NCCOc4cccc(F)c4F)CC3)c2c1` had a pIC50 of 6.62. This pIC50 lies 0.20 log units lower than the previous one.
With `CC(C)c1cc2c(ccc3nc(N)nc(N)c32)[nH]1` the figure was 7.40; with `COC(=O)c1ccc(-c2ccc(-c3cccnc3)cc2C)cc1`, 6.18; with `Cc1cc(N)nc2ccc(-c3ccc(CN)cc3)cc12`, 6.21.
The compound `CC(=O)Nc1ccc(Cl)c(Cl)c1` showed a pIC50 of 7.40.
With `COc1cccc(CN2CCCN(Cc3cccc(NC(=O)c4ccc(-c5ccccc5)cc4)c3)CC2)c1` the figure was 6.62; with `O=C(Nc1ccc(C(=O)Oc2ccc(-c3ccccc3)cc2)cc1)N[C@@H](Cc1ccc(O)cc1)C(=O)NC1CCN(Cc2ccc(O)cc2)C1` (stereo partly drawn), 6.10.
As to `COc1ccc(CC(=O)Nc2ccc(-c3cccc(-c4nc5c(C)cccc5[nH]4)c3)cc2)cc1O`, the pIC50 was 6.35.
`CCc1sc(CN(CCCNc2cc(=O)c3ccccc3[nH]2)Cc2sc(CC)c(Br)c2-c2ccsc2)c(-c2ccsc2)c1Br` showed a pIC50 of 7.05.
`Fc1cccc(C=NNc2ccnc3cc(Cl)ccc23)c1`: the pIC50 was 6.28.
In turn, `COc1cccc2c(NN=Cc3ccccc3F)ccnc12` had a pIC50 of 6.03. Compared with the last compound, the pIC50 is 0.25 log units lower.
In the case of `Cc1ccc2nc(C)cc(NN=Cc3ccccc3[N+](=O)[O-])c2c1` it was 6.77; in that of `CN(C)c1ccc2c(c1)Sc1cc(N(C)C)ccc1N2C(=O)CCCC(=O)O`, 6.10.
In the case of `Cc1cc(Br)cnc1CCCCNc1cc(=O)c2ccccc2[nH]1` it was 5.94; in that of `CN(C)C1CCN(CC#Cc2cc3ncnc(Nc4ccc(OCc5cccc(F)c5)c(Cl)c4)c3s2)CC1`, 6.05.
Regarding `C=CCn1c(SCc2c(C)noc2C)nc2scc(-c3cccs3)c2c1=O`, the pIC50 is 5.96.
In turn, `O=C(N[C@@H](CC1CCCCC1)C(=O)NCc1cccc2ccccc12)c1ccc(O)c(-c2ccc(Cl)c(Cl)c2)c1` showed a pIC50 of 6.66. Against the preceding compound, the pIC50 is 0.70 log units higher.
With `O=c1[nH]c2c(cc1CNC1CCCCC1)c(-c1ccc(F)cc1)nn2-c1ccccc1` the figure was 6.10; with `CC(C)C(=O)NC(Nc1ccc([N+](=O)[O-])cc1)C(Cl)(Cl)Cl` (stereo not drawn), 6.08.
The compound `CC(C)(C)C(=O)N1CCN(c2ccc([N+](=O)[O-])c(NC3CC3)c2)CC1` showed a pIC50 of 6.03.
The compound `CS(=O)(=O)NCCCNCc1cccc(-c2ccc(-c3nc4ccc(C(F)(F)F)cc4[nH]3)s2)c1` gave a pIC50 of 6.06.
Turning to `COCc1cccc(-c2cc(-c3ccc(S(C)(=O)=O)cc3)cnc2N)c1`, the pIC50 is 6.00. The pIC50 values of the last two compounds are within 0.2 log units of each other.
In the case of `Cc1cc(-c2cccc(CNC3CCN(C)CC3)c2)ccc1S(=O)(=O)NC1CCC1` it was 6.14; in that of `CCN(CCNC(=O)Cn1c(C)cc2cc([N+](=O)[O-])ccc21)c1cccc(C)c1`, 6.00; in that of `N#Cc1ccc(C2CCN(CC[C@H](N)Cc3ccc(Cl)s3)CC2)cc1`, 5.90.
`Cc1cccc2[nH]c(-c3ccc(-c4ccc(CN5CCCC(O)C5)cc4)s3)nc12` (stereo not drawn) gave a pIC50 of 6.08.
In the case of `Cc1nc(-c2ccc3c(c2)CCN(CCC2CCC(NC(=O)c4cc5cccc(Cl)c5[nH]4)CC2)CC3)no1` (stereo not drawn), the pIC50 is 6.20. The pIC50 values of the last two compounds are within 0.2 log units of each other.
In the case of `O=C(Nc1ccc(Oc2ccc(OC(F)(F)F)cc2)cc1)c1ccco1` it was 5.95.
With `c1ccc(C(OCCC2CCN(Cc3cccnc3)CC2)c2ccccc2)cc1` the figure was 6.09; with `CCCc1cc(NC2CCN(C)CC2)nc(Nc2ccc(F)cc2)n1`, 6.10; with `CC(C)CCN1CCCN(Cc2ccc(C(=O)Nc3ccc(Cl)cc3)cc2)CC1`, 6.10.
Regarding `CCCCC(=O)Nc1cc(=O)[nH]c2nc(-c3ccc(Cl)cc3)nn12`, the pIC50 is 6.15.
With `COc1ccc(-c2ccc(NC(=O)c3cccc(C#N)c3)cc2)cc1CN1CCCC(C(N)=O)C1` (stereo not drawn) the figure was 6.07; with `Cc1ccc(S(=O)(=O)N2CCCN(C(=O)c3cc(-c4ccccc4)n[nH]3)CC2)cc1`, 7.10.
In the case of `CC(Oc1cccc(Cl)c1)C(=O)N1CCc2ccccc21` (stereo not drawn) it was 6.29; in that of `COc1ccccc1-n1c(SCC(=O)Nc2ccccc2F)nc2cccnc21`, 6.38; in that of `Cc1[nH]c(C)c(-c2ccc(-c3ccc(OC(F)(F)F)cc3)nc2)c(=O)c1Br`, 6.60.

The record behind these values is PubChem BioAssay AID2305 (GlaxoSmithKline (GSK), 2010).
